Our source for the fold change (FC), Activity and Ratio values is ChEMBL document CHEMBL1137781, “Synthesis and preclinical evaluation of novel PET probes for P-glycoprotein function and expression” (J Med Chem, 2009).

Series [1] concerns NCI/ADR-RES. In words: Inhibition of Pgp in human MCF7/ADR cells assessed as increase in doxorubicin accumulation at 20 uM relative to untreated control. Type of series: cell-based.
In series [2] the test system is NCI/ADR-RES. In words: Inhibition of Pgp in human MCF7/ADR cells assessed as potentiation of doxorubicin-induced cytotoxicity at 20 uM relative to untreated control. Type of series: cell-based. Details: Activity: scale not given: the % may be the effect or the level left.
For a further series, the system named is Caco-2. As to the kind of experiment: Ratio of permeability from basolateral to apical side over apical to basolateral side in human Caco-2 cells. Type of series: ADME, cell-based. Background: Caco-2 cells form a polarised layer with tight junctions and transporters.

As to `COc1cc2c(cc1OC)CN(CCCC1CCCc3c(OC)cccc31)CC2` (stereo unspecified), in the series with NCI/ADR-RES [1], the fold change (FC) worked out at 4.8. In addition, the Activity in the series on NCI/ADR-RES [2] is 85%. In the series with Caco-2, the Ratio was determined as 18.
Consider `COc1cc2c(cc1OC)CN(CC/C=C1\CCCc3c(OC)cccc31)CC2`, for which the fold change (FC) was found to be 5.7 in the series on NCI/ADR-RES [1] and 95 with NCI/ADR-RES [2]. Further, the Ratio in the series with Caco-2 was 1.6.
